Consider 1 compound from patent US11712443B2, “17α-monoesters and 17α,21-diesters of cortexolone for use in the treatment of tumors” (COSMO TECHNOLOGIES LTD., priority 2014, dated 2023).

Data set [1] deals with MiaPaca-2 pancreatic tumor xenograft. As to the kind of experiment: Human pancreatic tumor xenograft in nude mice, subcutaneous treatment. The format is in vivo. As to the method:
The test was carried out comparing the anti-tumor activity of cortexolone 17α-benzoate at two different dosages (8.0 mg/kg, corresponding approximately at 230 μM, and 40 mg/kg, corresponding approximately at 1150 μM), versus the vehicle (i.e. 0.4% (v/v) tween 80 and 0.5% (w/v) carboxymethylcellulose in normal saline) and versus the comparator Cyproterone Acetate at two different dosages (7.4 mg/kg and 37 mg/kg).
1×10^6 MiaPaca-2 cells suspended in matrigel were subcutaneously injected into 6 week old athymic nude mice.
The treatment with the tested compounds, with the vehicle and with the comparative compound, was initiated after the tumor volume has reached 50 mm3 after transplantation. All compounds were injected 100 μL/mouse subcutaneously of low dose solution (approximately 230 μM) or 100 μL/mouse of high dose solution (approximately 1150 μM) of cortexolone 17α-benzoate, vehicle and cyproterone acetate, respectively. Compounds and controls were administered subcutaneously daily for 28 days.
Tumors were measured every 4 days with a digital caliper.
The results are plotted in FIG. 1 as average change in tumor volume relative to the start of treatment. Tumor volume was calculated according to the formula 0.5236(r1)^2(r2) where r1<r2.
The test was carried out comparing the anti-tumor activity of cortexolone 17α-valerate-21-propionate (CB-03-10) at two different dosages (approximately 8.6 mg/kg and 43 mg/kg) versus the vehicle (i.e. 0.4% (v/v) tween 80 and 0.5% (w/v) carboxymethylcellulose in normal saline) and versus the comparator Cyproterone Acetate at two different dosages (7.4 mg/kg and 37 mg/kg).
The treatment with the tested compound, with the vehicle and with the comparative compound was initiated after the tumor has reached a volume of 50 mm3 after implantation, injecting subcutaneously 100 μL/mouse of low dose solution (approximately 230 μM) or 100 μL/mouse of high dose solution (approximately 1150 μM) of cortexolone 17α-valerate-21-propionate (CB-03-10), vehicle and cyproterone acetate, respectively. Compounds and controls were administered subcutaneously daily for 28 days.
The results are plotted in FIG. 2 as average change in tumor volume relative to the start of treatment. Tumor volume was calculated according to the formula 0.5236(r1)^2(r2) where r1<r2.
CPA a well-known anti-androgen was used as control. Briefly 1×10^6 MiaPaca2 cells suspended in matrigel were subcutaneously (SC) injected into 6 week old male athymic nude mice. Tumors were measured every 4 days with a digital caliper. Tumor volume was calculated according to the formula: 0.5236(r1)2(r2) where r1<r2. Treatment with CB-03-10 and controls compounds was initiated after the tumor had reached 50 mm3. Compounds diluted in DMSO/2-hydroxypropyl b-cyclodextrin (vehicle) were injected subcutaneously (SC) daily (100 μL/mouse) at the concentration of 40 mg/Kg daily for 28 consecutive days.

Another data set concerns Panc1. As to conditions: human, 3 days.
The subject of another data set is stimulated PBMC. Nature of the data set: IC50 on stimulated PBMC (actively dividing cells).

Protocol for stimulated PBMC: The IC^50 in PBMC were tested in 2 different activation status:
stimulated—actively dividing cells
IC50 of the compounds was determined on fresh cells isolated from human blood (PBMC). The compounds toxicity was determined as follow: Therapeutic Index=Safety/Potency=IC50 stimulated PBMC_/IC50 cancer cell

For the compound `CCCCC(=O)O[C@]1(C(=O)COC(=O)CC)CC[C@H]2[C@@H]3CCC4=CC(=O)CC[C@]4(C)[C@H]3CC[C@@]21C` [CB-03-10, cortexolone 17α-valerate-21-propionate], in data set [1] (Example 6, high dose approximately 43 mg/kg (1150 μM, 100 μL/mouse) SC daily 28 days, for the time of treatment), the “pancreatic tumor size increase relative to initial tumor size” value is reported as “less than 5 fold”. Also, in data set [1] (Example 22, 40 mg/Kg SC daily 28 days, during the treatment period), the “pancreatic tumor size increase relative to the initial size” value was “less than 5 fold”. This compound also had a Median survival in data set [1] (Example 22, 40 mg/Kg SC daily 28 days, vehicle 60 days) of 70 days. This compound registered a tumor size increase in data set [1] (Example 22, 14 days after treatment was stopped, vehicle 14-fold) of 6 fold. Besides, the “in vivo antitumor activity compared with Cyproterone Acetate” value in data set [1] (Examples 5 and 6, FIG. 3, same animal model) is recorded as “antitumor activity higher than Cyproterone Acetate”. In addition, in the data set with Panc1, the “TI on Resting PBMC” value is 2, the “TI on Stimulated PBMC” value was found to be 2, the “Therapeutic Index = IC50 resting PBMC/IC50 cancer cell” value was found to be 2 and the “Therapeutic Index = IC50 stimulated PBMC/IC50 cancer cell” value is 2. Further, the “Therapeutic Index = IC50 resting PBMC/IC50 cancer cell” value with stimulated PBMC (PBMC Stim, healthy lymphocyte, Table IV) is listed as 1. Further, the “Therapeutic Index = IC50 stimulated PBMC/IC50 cancer cell, AVERAGE” value in the data set with stimulated PBMC (average across the 7 cancer cell lines, Table VII) is on record as 4.
